Test results reported in patent US9765118B2, “Pharmaceutical composition for cancer prevention and treatment containing peptide originated from C12orf59 protein as an active ingredient” (KOREA RESEARCH INSTITUTE OF BIOSCIENCE AND BIOTECHNOLOGY, priority 2010, dated 2017).

Legend:
colorectal cancer cells = test: Cellular survival rate of colorectal cancer cells by absorbance (Experimental Example 4); type: cell-based; details: as in Example <3-2>
Experimental: (§1) Particularly, 100 μl of poly-HEMA (Sigma) at the concentration of 12 mg/ml was loaded in 96-well plate, which stood in clean bench for 1 day, followed by drying. On the next day, the plate was coated with Poly-HEMA once again. Cells were distributed in the poly-HEMA coated plate by 100 μl/well (1×10^4 cells/well). At that time, serum-free medium was used. 6 days later, 10 μl of CCK-8 reagent (Dojindo cat. CK04-13) was added to each well, followed by reaction for 3 hours. Then, OD450 was measured.
In particular, a cellular survival rate was measured using absorbance in the same manner as in Example <3-2>.

SW480 cells [1] = test: Cell survivability under anchorage independent condition (polyHEMA, CCK-8, OD450) with peptides; type: cell-based, human; details: 6 days, serum-free
Experimental: 6 days later, cell survivability was measured by colorimetric technique under the anchorage independent condition.
as §1

SW480sub cells = test: Transwell matrigel invasion assay with peptide-treated SW480sub cells; type: cell-based, human; details: for invasion reduced compared to vehicle control: peptide 50 μM; for colorectal cancer cell invasion reduced by / inhibitory effects on invasion: peptide 100 μg/ml, 48 hours
Experimental: SW480sub was subpopulation of SW480 having high in vitro invasion and in vivo metastasis ability. The effect of each peptide on colorectal cancer cell invasion was analyzed using the said SW480sub. SW480sub cells were mixed with each peptide, followed by pre-incubation for 30 minutes.
(§2) Particularly, the porous membrane of 24-well transwell plate (8 μm pore size; Costar, USA) was coated with 100 μl of matrigel (BD Biosciences, USA) diluted in serum free medium at the concentration of […], which stood at room temperature for 1 hour for fixing. The lower part of the transwell plate was coated with 100 μl of collagen type I (Sigma) at the concentration of […]. The said collagen type I was used as a chemoattractant. 1×10^4 cells resuspended in serum free medium were distributed in the upper chamber of the said 24-well transwell plate, followed by culture at 37° C. with 5% CO2 for 48 hours, during which the cells were induced to migrate from the upper chamber to the lower chamber. The non-migrated cells were eliminated from the surface of the upper chamber. […] The excessive crystal violet solution was washed off with distilled water. The selected area (×100) was photographed. The number of the cells migrated was counted from 5 different selected areas. Then, mean value and standard error were obtained.

[2] = test system: C8161 (human melanoma) cell line; test: Transwell invasion assay with C8161 cells in the presence of the peptide; type: cell-based; details: 24 h
Experimental: Specifically, C8161 (human melanoma) cell line was cultured in DMEM containing 10% FBS, penicillin-streptomycin, L-glutamine, sodium pyruvate and glucose. C8161 cells (1×10^4) in the presence of the peptide were plated in serum-free medium on 24-well Transwell inserts (8 μm pore size; Costar, USA) coated with 25 μg of […] (BD Biosciences, USA). The underside of the insert was coated with 100 μl of collagen type I (Sigma) at the concentration of 5 μg/ml. […] The number of cells that had invaded was counted in five representative fields per insert. Then, mean value and standard deviation were obtained.

SW480 cells [3] = test: Transwell invasion assay with peptide-treated SW480 cells; type: cell-based, human; details: for invasion of colorectal cancer cells compared to the control: 50 μM, control DMSO 0.25%; for invasion of cells reduced by: FIGS. 18 and 19, concentration not given
Experimental: as §2
SW480 colorectal cancer cells were treated with peptides originated from C12orf59, and effects of the peptids on invasion of the cells were analyzed.

Row | Substance | survival of colorectal cancer cells (colorectal cancer cells) | invasion reduced compared to vehicle control (SW480sub cells) | invasion of colorectal cancer cells compared to the control (SW480 cells [3]) | invasion of cells reduced by (SW480 cells [3]) | further results
1 | SWRPQPCCISSCCLT (B_C-term1) | inhibitory effects on the survival of colorectal cancer cells in a concentration-dependent manner |  |  |  | 
2 | PCCISSCCLTTDWVH (B_N-term) | inhibitory effects on the survival of colorectal cancer cells in a concentration-dependent manner |  |  |  | 
3 | EENCGNPEHCLTTDWVH (A_intact) [17 amino acid peptide from the extracellular domain of C12orf59 isoform 1] |  | 40% |  |  | cell survivability reduced by (SW480 cells [1]): 82%; C8161 invasion reduced by ([2]; 30 μg/ml): 10%; C8161 invasion reduced by ([2]; 100 μg/ml): 45%
4 | CLTTDWVH (A/B common) |  |  | effects similar to those of A_C-term2 and B_C-term2 |  | 
5 | EENCGNPEHCLT (A_C-term1) | inhibitory effects on the survival of colorectal cancer cells in a concentration-dependent manner | 48% |  | 48% | colorectal cancer cell invasion reduced by / inhibitory effects on invasion (SW480sub cells): about 92%
6 | SWRPQPCCIS (B_C-term2) |  | 50% | inhibited the invasion | 39% | 
7 | EENCGNP (A_C-term2) |  | 46% | inhibited the invasion | 38% | colorectal cancer cell invasion reduced by / inhibitory effects on invasion (SW480sub cells): about 99%
8 | NPEHCLT (A_Cen) |  |  |  | 49% | 
9 | PCCISS (B_Cen2) |  |  | superior inhibitory effects |  | 
10 | NPEHCLTTDWVH (A_N-term) | inhibitory effects on the survival of colorectal cancer cells in a concentration-dependent manner |  |  | 39% | 
